Assay results: ChEMBL document CHEMBL4402596, “Pyridine-Embedded Phenothiazinium Dyes as Lysosome-Targeted Photosensitizers for Highly Efficient Photodynamic Antitumor Therapy” (J Med Chem, 2020)
Calls of active or inactive are those of the source. No cut-off for these calls is given here.

Tests used:
[1] = Drug uptake in nucleus of human HT-29 cells at 0.5 uM incubated for 5 hrs by Hoechst 33342 staining based fluorescence microscopy; assay type: ADME, cell-based; conditions: ht-29, 5 h
[2] = tested on: HT-29; experiment: Cytotoxicity against human HT-29 cells assessed as reduction in cell viability preincubated for 1 hr followed by light irradiation at 3.2 J/cm2 for 30 sec and measured after 24 hrs by MTT assay; assay type: functional, cell-based; conditions: HT-29, light or radiation study
[3] = tested on: HT-29; experiment: Cytotoxicity against human HT-29 cells assessed as reduction in cell viability incubated for 24 hrs in dark by MTT assay; assay type: cell-based; conditions: HT-29, 24 h
[4] = tested on: A549; experiment: Cytotoxicity against human A549 cells assessed as reduction in cell viability incubated for 1 hr followed by light irradiation at 3.2 J/cm2 for 30 sec and measured after 24 hrs by MTT assay; assay type: functional, cell-based; conditions: A549, light or radiation study
[5] = tested on: HT-29; experiment: Ratio of IC50 for cytotoxicity against human HT-29 cells in dark to IC50 for cytotoxicity against human HT-29 cells in light at 3.2J/cm2
[6] = Drug localization in lysosome of human HT-29 cells at 0.5 uM measured after 1 hr in dark by Lyso-tracker based confocal laser scanning microscopy; assay type: ADME, subcellular; conditions: ht-29, 1 h
[7] = tested on: MCF7; experiment: Ratio of IC50 for cytotoxicity against human MCF7 cells in dark to IC50 for cytotoxicity against human MCF7 cells in light at 3.2J/cm2
[8] = tested on: HT-29; experiment: Cytotoxicity against human HT-29 cells assessed as reduction in cell viability preincubated for 1 hr followed by light irradiation at 3.2 J/cm2 for 10 to 180 secs and measured after 24 hrs by MTT assay; assay type: functional, cell-based
[9] = Photostability of compound assessed as decrease in rate of photo decomposition at 5 uM irradiated with LED light (630 nm, 106 mW cm'-2) upto 12 mins by UV spectrophotometry
[10] = tested on: MCF7; experiment: Cytotoxicity against human MCF7 cells assessed as reduction in cell viability incubated for 24 hrs in dark by MTT assay; assay type: cell-based; conditions: MCF7, 24 h
[11] = tested on: MCF7; experiment: Cytotoxicity against human MCF7 cells assessed as reduction in cell viability incubated for 1 hr followed by light irradiation for 30 sec at 3.2 J/cm2 and measured after 24 hrs by MTT assay; assay type: functional, cell-based; conditions: MCF7, light or radiation study
[12] = Induction of singlet oxygen generation in EtOH assessed as singlet oxygen quantum yield irradiated with 12.8 J light for 2 mins by DPBF-based assay; assay type: functional
[13] = tested on: A549; experiment: Cytotoxicity against human A549 cells assessed as reduction in cell viability incubated for 24 hrs in dark by MTT assay; assay type: cell-based; conditions: A549, 24 h
[14] = tested on: HT-29; experiment: Induction of ROS generation in human HT-29 cells at 0.5 uM incubated for 0.5 hrs followed by DCFH-DA addition for 0.5 hrs then irradiated with light for 30 sec and measured after 15 mins by flow cytometry; assay type: functional, cell-based
[15] = tested on: A549; experiment: Ratio of IC50 for cytotoxicity against human A549 cells in dark to IC50 for cytotoxicity against human A549 cells in light at 3.2J/cm2
[16] = MRT (0 to infinity) in Sprague-Dawley rat at 2 mg/kg, iv measured upto 24 hrs by fluorescence based assay; assay type: ADME, organism-based; conditions: in vivo
[17] = Toxicity in BALB/c mouse xenografted with human HT-29 cells assessed as damage in kidney at 2 mg/kg, iv after 2 hrs irradiated with light and measured on day 24; assay type: organism-based; conditions: in vivo
[18] = Clearance in Sprague-Dawley rat at 2 mg/kg, iv measured upto 24 hrs by fluorescence based assay; assay type: ADME, organism-based; conditions: in vivo
[19] = Cmax in Sprague-Dawley rat at 2 mg/kg, iv measured upto 24 hrs by fluorescence based assay; assay type: ADME, organism-based; design: dose 2 mg/kg, route intravenous; conditions: in vivo
[20] = Half life in Sprague-Dawley rat at 2 mg/kg, iv measured upto 24 hrs by fluorescence based assay; assay type: ADME, organism-based; conditions: in vivo
[21] = Toxicity in BALB/c mouse xenografted with human HT-29 cells assessed as damage on lung at 2 mg/kg, iv after 2 hrs irradiated with light and measured on day 24; assay type: organism-based; conditions: in vivo
[22] = Toxicity in BALB/c mouse xenografted with human HT-29 cells assessed as damage on liver at 2 mg/kg, iv after 2 hrs irradiated with light and measured on day 24; assay type: organism-based; conditions: in vivo
[23] = tested on: HT-29; experiment: Induction of morphological changes in nucleus of human HT-29 cells at 0.5 uM incubated in dark for 1 hr followed by irradiated with LED light for 30 sec and measured after 18 hrs by Hoechst 33342 staining based fluorescence microscopy; assay type: functional, cell-based
[24] = AUC (0 to t) in Sprague-Dawley rat at 2 mg/kg, iv measured upto 24 hrs by fluorescence based assay; assay type: ADME, organism-based; conditions: in vivo
[25] = Drug localization in mitochondria of human WI38 cells at 0.5 uM measured after 1 hr by Mito-GFP based confocal laser scanning microscopy; assay type: ADME; conditions: wi-38, 1 h
[26] = Toxicity in BALB/c mouse xenografted with human HT-29 cells assessed as damage on heart tissue at 2 mg/kg, iv after 2 hrs irradiated with light and measured on day 24; assay type: organism-based; conditions: in vivo
[27] = tested on: HT-29; experiment: Antitumor activity against human HT-29 cells xenografted in BALB/c mouse assessed as reduction in tumor volume at 2 mg/kg, iv after 2 hrs irradiated with light and measured on day 24; assay type: functional, organism-based
[28] = Toxicity in BALB/c mouse xenografted with human HT-29 cells assessed as damage in spleen at 2 mg/kg, iv after 2 hrs irradiated with light and measured on day 24; assay type: organism-based; conditions: in vivo
[29] = tested on: HT-29; experiment: Potency index, ratio of IC50 of methylene blue to IC50 of compound for cytotoxicity against human HT-29 cells assessed as reduction in cell viability incubated for 1 hr followed by light irradiation at 3.2 J/cm2 for 30 sec and measured after 24 hrs by MTT assay; assay type: functional
[30] = tested on: HT-29; experiment: Antitumor activity against human HT-29 cells xenografted in BALB/c mouse assessed as reduction in tumor volume at 2 mg/kg, iv after 2 hrs irradiated with light and measured on day 5; assay type: functional, organism-based
[31] = tested on: HT-29; experiment: Induction of morphological changes in nucleus of human HT-29 cells at 0.5 uM incubated for 18 hrs in dark by Hoechst 33342 staining based fluorescence microscopy; assay type: cell-based; conditions: ht-29, 18 h
[32] = Drug localization in mitochondria of human Ht-29 cells at 0.5 uM measured after 1 hr by Mito-GFP based confocal laser scanning microscopy; assay type: ADME; conditions: ht-29, 1 h
[33] = Drug localization in lysosome of human WI38 cells at 0.5 uM measured after 1 hr by LAMP1-GFP based confocal laser scanning microscopy; assay type: ADME, subcellular; conditions: wi-38, 1 h
[34] = Drug localization in lysosome of human HT-29 cells at 0.5 uM measured after 1 hr by LAMP1-GFP based confocal laser scanning microscopy; assay type: ADME, subcellular; conditions: ht-29, 1 h
[35] = AUC (0 to infinity) in Sprague-Dawley rat at 2 mg/kg, iv measured upto 24 hrs by fluorescence based assay; assay type: ADME, organism-based; design: dose 2 mg/kg, route intravenous, time infinity; conditions: in vivo
[36] = tested on: WI-38; experiment: Cytotoxicity against human WI38 cells assessed as reduction in cell viability incubated for 24 hrs in dark by MTT assay; assay type: cell-based; conditions: WI-38, 24 h
[37] = tested on: HT-29; experiment: Antitumor activity against human HT-29 cells xenografted in BALB/c mouse assessed as reduction in tumor growth at 2 mg/kg, iv after 2 hrs irradiated with light and measured on day 5; assay type: functional, organism-based

CN(C)c1ccc2nc3ccc(N(C)C)cc3[s+]c2c1.[Cl-] [METHYLENE BLUE ANHYDROUS]
Drug uptake [1]: Active | IC50 [2]: 9200 nM | IC50 [3]: > 10000 nM

CCN(CC)c1ccc2nc3c(cc(N)c4nc(C)ccc43)[s+]c2c1.[Cl-]
IC50 [4]: 1800 nM | Ratio IC50 [5]: 21.9 | Drug uptake [6]: Active | IC50 [2]: 210 nM | Ratio IC50 [7]: 2.2 | Activity [8]: Active | Stability [9]: Stable | IC50 [10]: 1100 nM | IC50 [11]: 500 nM | Activity [12]: 0.08 to 0.14 | IC50 [3]: 4600 nM | IC50 [13]: 6500 nM | Activity [14]: Active | Ratio IC50 [15]: 3.6

CCCNc1cc2[s+]c3cc(N(CC)CC)ccc3nc2c2ccc(C)nc12.[Cl-]
MRT inf [16]: 12.4 h | Activity [17]: Non-Toxic | Drug uptake [1]: Not Active | clearance [18]: 7.33 mL/min/kg | Cmax [19]: 2180 ng/mL | half-life [20]: 7.81 h | Activity [21]: Non-Toxic | Activity [22]: Non-Toxic | IC50 [4]: 340 nM | Ratio IC50 [5]: 53.8 | Drug uptake [6]: Active | IC50 [2]: 39 nM | Activity [23]: Active | AUCt [24]: 3.78 mg/h/L | Drug uptake [25]: Not Active | Activity [26]: Non-Toxic | Activity [27]: Active | Activity [28]: Non-Toxic | Ratio IC50 [29]: 235 | Ratio IC50 [7]: 5.1 | Activity [8]: Active | Activity [30]: Active | Stability [9]: Stable | IC50 [10]: 1900 nM | Activity [31]: Non-Toxic | IC50 [11]: 370 nM | Activity [12]: 0.08 to 0.14 | Drug uptake [32]: Not Active | Drug uptake [33]: Active | Drug uptake [34]: Active | IC50 [3]: 2100 nM | IC50 [13]: 3100 nM | Activity [14]: Active | AUC [35]: 4550 ng·h/mL | IC50 [36]: > 10000 nM | Ratio IC50 [15]: 9.1 | Activity [37]: Active

CCCCCCCNc1cc2[s+]c3cc(N(CC)CC)ccc3nc2c2ccc(C)nc12.[Cl-]
IC50 [4]: 3700 nM | Ratio IC50 [5]: 8.47 | Drug uptake [6]: Active | IC50 [2]: 1050 nM | Ratio IC50 [7]: 3.8 | Activity [8]: Active | Stability [9]: Stable | IC50 [10]: 14400 nM | IC50 [11]: 3800 nM | Activity [12]: 0.08 to 0.14 | IC50 [3]: 8890 nM | IC50 [13]: 17100 nM | Activity [14]: Active | Ratio IC50 [15]: 4.6
